Data taken from paper PMC6150311, “Proline-Based Carbamates as Cholinesterase Inhibitors” (Molecules : A Journal of Synthetic Chemistry and Natural …, 2017).

Assays:
[1] = target: T1, AChE from electric eel (Electrophorus electricus) (Electrophorus electricus, UniProt O42275); assay: In vitro AChE inhibition, modified Ellman's method; format: biochemical
T1 construct: AChE (from electric eel) and BChE (from equine serum); purchased Sigma, St. Louis, MO, USA; host or cells: electric eel (animal source)
T1 sequence (O42275 24-633): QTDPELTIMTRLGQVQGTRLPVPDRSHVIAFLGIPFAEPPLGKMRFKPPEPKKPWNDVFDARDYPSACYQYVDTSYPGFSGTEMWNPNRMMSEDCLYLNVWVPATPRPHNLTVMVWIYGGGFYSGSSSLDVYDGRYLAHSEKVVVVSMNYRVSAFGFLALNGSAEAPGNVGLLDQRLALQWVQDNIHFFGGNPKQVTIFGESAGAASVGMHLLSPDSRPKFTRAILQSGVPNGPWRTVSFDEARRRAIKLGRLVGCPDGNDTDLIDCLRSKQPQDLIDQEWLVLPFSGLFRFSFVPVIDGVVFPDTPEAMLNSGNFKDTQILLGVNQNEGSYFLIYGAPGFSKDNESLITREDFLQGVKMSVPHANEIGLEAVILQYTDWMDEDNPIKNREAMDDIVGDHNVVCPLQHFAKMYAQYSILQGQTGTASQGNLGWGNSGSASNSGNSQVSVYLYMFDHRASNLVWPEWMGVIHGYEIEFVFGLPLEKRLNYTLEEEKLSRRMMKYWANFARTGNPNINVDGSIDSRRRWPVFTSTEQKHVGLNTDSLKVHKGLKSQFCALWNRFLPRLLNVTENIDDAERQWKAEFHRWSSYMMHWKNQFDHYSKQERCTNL
Method: (§1) The ability of all prepared compounds to inhibit AChE from electric eel (Electrophorus electricus) and BChE from equine serum (both purchased from Sigma, St. Louis, MO, USA) was determined in vitro using a modified Ellman’s method. […] The Ellman’s method is widely used for measuring cholinesterase activity and the effectivity of ChEIs. It is a simple, rapid and direct method to determine SH and –S–S– groups content in proteins. Cholinesterase activity is measured indirectly by quantifying the concentration of 5-thio-2-nitrobenzoic acid (TNB) ion formed in the reaction between disulfide reagent 5,5′-dithiobis-2-nitrobenzoic acid (DTNB) and thiocholine, a product of substrate (i.e., acetylthiocholine, ATCh) hydrolysis catalyzed by cholinesterase.
(§2) All tested compounds were dissolved in DMSO (concentration 0.01 M) and diluted in demineralized water (concentrations 0.001 M and 0.0001 M). The ability of tested compounds to inhibit AChE (from electric eel) and BChE (from equine serum) was determined using the modified Ellman’s method at 25 °C in the presence of phosphate buffered saline (PBS, 0.1 M, pH 7.4) in a glass cuvette with 1 cm optical path. The enzyme activity in total reaction mixture (2 mL) was 0.2 U/mL, the concentration of substrate ATCh 40 μM and the concentration of DTNB 0.1 mM for all reactions. The IC50 value was obtained from the dependence of v0/vi on the concentration of the tested compound (inhibitor), where v0 is the reaction rate of uninhibited reaction and vi is the reaction rate of inhibited reaction (for the given concentration of the inhibitor). First, v0 was determined. Into the cuvette PBS (0.1 M, pH 7.4), DTNB and ATCh were placed. The enzymatic reaction was started by adding the enzyme. […] The measurement was performed in triplicate at least, and average v0 was determined. Then, vi (for the given concentration of the inhibitor) was determined. Into the cuvette DTNB, ATCh, a chosen volume of the suitably diluted inhibitor (to achieve the required concentration of the inhibitor in the total reaction mixture) and a certain volume of PBS (to achieve the total volume of the reaction mixture 2 mL after adding the enzyme) were placed. The enzymatic reaction was started by adding the enzyme. […] For determination of IC50 values, twelve different concentrations of inhibitor were used and each measurement was performed in triplicate at least.

BChE from equine serum = target: T2, BChE from equine serum (Equus caballus, UniProt P81908); assay: In vitro BChE inhibition, modified Ellman's method; format: biochemical; settings: for SI (index selectivity) = IC50 (AChE)/IC50 (BChE): ratio AChE/BChE, higher = more selective to BChE
T2 construct: BChE (from equine serum); purchased Sigma, St. Louis, MO, USA; host or cells: equine serum
T2 sequence (P81908 whole entry): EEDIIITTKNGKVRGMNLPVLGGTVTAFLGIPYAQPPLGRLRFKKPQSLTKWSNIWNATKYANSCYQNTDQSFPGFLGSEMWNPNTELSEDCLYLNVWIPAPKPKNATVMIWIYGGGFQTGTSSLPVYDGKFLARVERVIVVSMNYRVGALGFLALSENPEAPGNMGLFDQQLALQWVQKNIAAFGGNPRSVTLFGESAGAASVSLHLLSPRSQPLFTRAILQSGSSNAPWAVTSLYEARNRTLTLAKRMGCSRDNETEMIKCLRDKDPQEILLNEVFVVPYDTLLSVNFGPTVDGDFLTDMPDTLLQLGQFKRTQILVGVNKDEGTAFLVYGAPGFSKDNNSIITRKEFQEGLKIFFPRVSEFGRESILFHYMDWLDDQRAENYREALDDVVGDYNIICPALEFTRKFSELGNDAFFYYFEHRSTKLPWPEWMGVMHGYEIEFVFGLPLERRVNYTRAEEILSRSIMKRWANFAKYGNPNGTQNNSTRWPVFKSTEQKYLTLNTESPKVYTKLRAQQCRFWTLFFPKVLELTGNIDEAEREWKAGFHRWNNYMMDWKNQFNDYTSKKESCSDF
Method: as §1, §2

[2] = test system: human monocytic leukemia THP-1 cells; assay: In vitro cytotoxicity assay (WST-1); format: cell-based; settings: 24 h, highest tested concentration 30 μM, read-out: tox. IC50
Method: The cytotoxicity was evaluated as the IC50 value (compound concentration causing 50% inhibition of cell population proliferation) (see Table 1). […] Based on these observations, it can be concluded that the discussed compounds can be considered as non-toxic agents for subsequent design of novel drugs.
Human monocytic leukemia THP-1 cells were used for in vitro toxicity assay. Cells were obtained from the European Collection of Cell Cultures (ECACC, Salisbury, UK) and routinely cultured in RPMI 1640 (Lonza, Verviers, Belgium) medium supplemented with 10% fetal bovine serum (FBS, Sigma), 2% L-glutamine, 1% penicillin and streptomycin (Lonza, Verviers, Belgium) at 37 °C with 5% CO2. Cells were passaged at approximately one week intervals. The cytotoxicity of the compounds was determined using a WST-1 assay kit (Roche Diagnostics, Mannheim, Germany) according to the manufacturer’s instructions. The tested compounds were dissolved in DMSO and added in five increasing concentrations (0.37, 1.1, 3.3, 10, and 30 μM) to the cell suspension in the culture RPMI 1640 medium. The maximum concentration of DMSO (Sigma) in the assays never exceeded 0.1%. Subsequently, the cells were incubated for 24 h at 37 °C with 5% CO2. For WST-1 assays, cells were seeded into 96-well plates (5 × 10^4 cells/well in 100 μL culture medium) in triplicate in serum-free RPMI 1640 medium, and measurements were taken 24 h after the treatment with the compounds. The median inhibition concentration values, IC50, were deduced through the production of a dose-response curve. All data were evaluated using the GraphPad Prism 5.00 software (GraphPad Software, San Diego, CA, USA).

| SMILES | IC50 [1] [µM] | IC50 (BChE from equine serum) [µM] | SI (index selectivity) = IC50 (AChE)/IC50 (BChE) (BChE from equine serum) | IC50 [2] [µM] | selectivity to BChE (in words) (BChE from equine serum; BChE vs AChE) |
| --- | --- | --- | --- | --- | --- |
| O=C(Nc1ccccc1Cl)[C@@H]1CCCN1C(=O)OCc1ccccc1 [Compound 5a, Benzyl (2S)-2-[(2-chlorophenyl)carbamoyl]pyrrolidine-1-carboxylate] | 46.4 ± 1.05 | 53.47 ± 0.52 | 0.87 | > 30 | – |
| O=C(Nc1ccccc1O)[C@@H]1CCCN1C(=O)OCc1ccccc1 [Compound 9a, Benzyl (2S)-2-[(2-hydroxyphenyl)carbamoyl]pyrrolidine-1-carboxylate] | 153 ± 9.97 | 42 ± 1.26 | 3.65 | > 30 | greater selectivity to BChE |
| O=C(Nc1ccccc1[N+](=O)[O-])[C@@H]1CCCN1C(=O)OCc1ccccc1 [Compound 8a, Benzyl (2S)-2-[(2-nitrophenyl)carbamoyl]pyrrolidine-1-carboxylate] | 152.21 ± 0.01 | 48.7 ± 0.8 | 3.13 | > 30 | – |
